Earlier results, collected in publication PMC5572761 (Journal of medicinal chemistry, 2017).

System: α3β4 nAChR
Settings: read-out: IC50 [nM] α3β4; cited from earlier work

## α-conotoxin AuIB [Peptide 17]
  IC50: 750 nM
